This note sets out measurements from US9890139B2, “CYP17 inhibitors/antiandrogens” (Orion Corporation, priority 2013, dated 2018).

For one experiment, the target named is T1, full-length human AR (Homo sapiens, UniProt P10275).
T1 construct: expression vector encoding full-length human AR; expressed in transfected cells; host or cells: HEK293 (hAR/HEK293 cells)
T1 sequence (P10275 1-920): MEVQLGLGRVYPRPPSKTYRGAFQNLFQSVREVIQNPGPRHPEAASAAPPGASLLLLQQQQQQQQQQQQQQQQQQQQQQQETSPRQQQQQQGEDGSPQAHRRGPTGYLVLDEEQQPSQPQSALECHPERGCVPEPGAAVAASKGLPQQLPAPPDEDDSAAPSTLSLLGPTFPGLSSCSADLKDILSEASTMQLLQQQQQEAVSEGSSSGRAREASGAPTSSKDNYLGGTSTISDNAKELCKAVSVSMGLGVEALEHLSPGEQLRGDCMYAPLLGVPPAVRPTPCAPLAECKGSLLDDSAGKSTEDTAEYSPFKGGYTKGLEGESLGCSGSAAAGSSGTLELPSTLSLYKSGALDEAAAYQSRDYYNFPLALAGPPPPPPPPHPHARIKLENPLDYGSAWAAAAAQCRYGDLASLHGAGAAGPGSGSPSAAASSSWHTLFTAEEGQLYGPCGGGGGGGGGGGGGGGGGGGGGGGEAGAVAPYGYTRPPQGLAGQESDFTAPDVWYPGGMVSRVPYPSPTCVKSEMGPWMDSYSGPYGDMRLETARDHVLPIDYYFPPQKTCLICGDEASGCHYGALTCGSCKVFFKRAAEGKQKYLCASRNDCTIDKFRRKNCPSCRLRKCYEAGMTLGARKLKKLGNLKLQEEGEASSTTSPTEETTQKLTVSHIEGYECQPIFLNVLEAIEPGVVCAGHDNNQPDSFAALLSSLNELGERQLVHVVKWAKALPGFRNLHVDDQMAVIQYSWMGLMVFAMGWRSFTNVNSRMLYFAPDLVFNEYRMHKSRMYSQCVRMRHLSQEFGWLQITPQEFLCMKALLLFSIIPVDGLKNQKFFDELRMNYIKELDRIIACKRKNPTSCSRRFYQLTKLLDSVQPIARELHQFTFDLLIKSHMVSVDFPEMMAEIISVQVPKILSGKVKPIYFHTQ
Nature of the experiment: AR antagonism, reporter gene assay in hAR/HEK293 cells. The format is cell-based. Conditions: HEK293 cells stably transfected with full-length human AR and androgen responsive luciferase reporter; co-treated with submaximal testosterone (usually 0.45 nM); 1% DMSO; triplicates. How it is done:
Antagonism of test compounds for AR was measured by reporter gene assay in human embryonic kidney (HEK293) cells stably transfected with an expression vector encoding full-length human AR and androgen responsive luciferase reporter gene construct (hAR/HEK293 cells). To determine antagonism for hAR, the cells were treated simultaneously with increasing concentrations of the test compound and submaximal concentration of testosterone (usually 0.45 nM). The final DMSO concentration was 1%. All test compounds were studied in triplicates. The cells were incubated for […] before measurement of luciferase activity using Luciferase Assay System (Promega Corporation).
(In general: A reporter such as luciferase makes a cellular process visible.)

A further experiment has as its target T2, 17,20 lyase (CYP17) (Homo sapiens, UniProt P05093).
T2 construct: endogenous in cells; host or cells: H295R human adrenocortical carcinoma cells
T2 sequence (P05093 1-508): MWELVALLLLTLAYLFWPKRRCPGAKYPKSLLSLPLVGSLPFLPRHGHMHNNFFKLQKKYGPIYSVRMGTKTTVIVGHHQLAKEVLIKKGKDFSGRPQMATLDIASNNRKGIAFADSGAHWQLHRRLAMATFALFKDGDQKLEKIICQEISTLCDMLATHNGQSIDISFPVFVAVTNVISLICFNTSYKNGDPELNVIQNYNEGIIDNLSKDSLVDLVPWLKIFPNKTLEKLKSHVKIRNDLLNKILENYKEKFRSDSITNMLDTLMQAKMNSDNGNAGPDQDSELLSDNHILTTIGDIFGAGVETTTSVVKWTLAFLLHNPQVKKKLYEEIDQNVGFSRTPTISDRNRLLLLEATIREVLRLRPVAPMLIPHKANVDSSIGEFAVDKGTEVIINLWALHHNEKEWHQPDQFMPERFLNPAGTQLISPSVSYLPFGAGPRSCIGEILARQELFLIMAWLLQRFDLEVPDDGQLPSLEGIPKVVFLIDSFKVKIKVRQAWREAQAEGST
Description: 17,20 lyase (CYP17) inhibition, acetic acid release assay (AARA) on H295R cells. The class given is cell-based. How it is done:
The ability of the test compounds to inhibit 17,20 lyase catalysed conversion of 17α-hydroxypregnenolone to dehydroepiandrosterone and acetic acid was measured by acetic acid release assay (AARA) on human H295R adrenocortical carcinoma cell line (Grigoryev, D. N. et al., Analytical Biochemistry 1999; 267:319-330). […] The final DMSO concentration was 1%. Cell culture medium was extracted with dextran-coated charcoal suspension (Isomaa, V. et al., Endocrinology 1982; 111(3):833-843). ^3H-acetic acid was determined by mixing 100 μl of supernatant fraction in 200 μl of scintillation fluid (OptiPhase SuperMix, Perkin Elmer). Radioactivity was measured using a Microbeta scintillation counter (1450 MicroBeta Trilux, Wallac). All the test compounds were studied in quadruplicates.

Setting [1] is: human H295R adrenocortical carcinoma cells, overnight (16-19 h) with 17α-[21-3H]hydroxypregnenolone, 3H-acetic acid release, 1% DMSO, quadruplicates, read-out: CYP17 inhibition IC50.

SMILES strings stand for the structures. Where two headings read alike, the source gives them in different places.

Take `CCCn1cncc1C1=CCC(N(CC)c2ccc(C#N)c(C(F)(F)F)c2)C1` (stereo not drawn) [Ex. 103, 4-(Ethyl(3-(1-propyl-1H-imidazol-5-yl)cyclopent-3-en-1-yl)amino)-2-(trifluoromethyl)benzonitrile]: the results for the IC50 on full-length human AR and against 17,20 lyase (CYP17) were 0.058 µM and 0.029 µM, respectively.

Regarding `CN(c1ccc(C#N)c(C(F)(F)F)n1)C1C=C(n2ccnc2)CCC1(C)C` (stereo not drawn) [Ex. 250, 6-{[3-(1H-Imidazol-1-yl)-6,6-dimethylcyclohex-2-enyl](methyl)amino}-2-(trifluoromethyl)nicotinonitrile], the half-maximal inhibitory concentration (IC50) (as a rule, the concentration needed to halve the response being measured) was 0.205 µM at full-length human AR and 0.027 µM at 17,20 lyase (CYP17) (setting [1]).

In the case of `CN(c1ccc(C#N)c(C(F)(F)F)c1)[C@@H]1C=C(n2ccnc2)[C@H](O)CC1(C)C` (relative stereo) [Ex. 236, Cis-4-((4-hydroxy-3-(1H-imidazol-1-yl)-6,6-dimethylcyclohex-2-enyl)-(methyl)amino)-2-(trifluoromethyl)benzonitrile], the IC50 stood at 0.124 µM at full-length human AR and 0.247 µM against 17,20 lyase (CYP17).

`CN(c1ccc(C#N)c(C(F)(F)F)c1)C1CC(c2c[nH]cn2)=CCC1(C)C` (single isomer, unassigned; diastereomer 1) [Ex. 244 diastereomer 1, 4-{[3-(1H-Imidazol-4-yl)-6,6-dimethylcyclohex-3-enyl](methyl)amino}-2-(trifluoromethyl)benzonitrile]: on 17,20 lyase (CYP17) (setting [1]), the IC50 turned out to be 0.116 µM.

Take `CCN(c1ccc(C#N)c(C(F)(F)F)c1)C1CCCC(c2cnc[nH]2)C1` (stereo not drawn) [Ex. 224 cis-diasteromer, 4-((3-(1H-imidazol-5-yl)cyclohexyl)(ethyl)amino)-2-(trifluoromethyl)benzonitrile]: at 17,20 lyase (CYP17) (setting [1]), the IC50 turned out to be 0.059 µM.

As to `CN(c1ccc(C#N)c(C(F)(F)F)c1)C1C=C(n2ccnc2)CCC1(C)C` (racemic) [Ex. 130 racemate, 4-{[3-(1H-Imidazol-1-yl)-6,6-dimethylcyclohex-2-enyl](methyl)amino}-2-(trifluoromethyl)benzonitrile], the IC50 at full-length human AR was determined as 0.065 µM; at 17,20 lyase (CYP17) (setting [1]), 0.014 µM.

With `Cc1nc(N(C)C2C=C(n3ccnc3)CCC2(C)C)ccc1[N+](=O)[O-]` (single isomer, unassigned) [Ex. 203 enantiomer 1, N-[3-(1H-Imidazol-1-yl)-6,6-dimethylcyclohex-2-enyl]-N,6-dimethyl-5-nitropyridin-2-amine], the figures for the IC50 at full-length human AR and on 17,20 lyase (CYP17) (setting [1]) were 0.017 µM and 0.016 µM, respectively.

`CCN(c1ccc(C#N)c(Cl)c1)C1C=C(n2ccnc2)CCC1(C)C` (single isomer, unassigned; enantiomer 1) [Ex. 21, 4-((3-(1H-imidazol-1-yl)-6,6-dimethylcyclohex-2-enyl)(ethyl)amino)-2-chlorobenzonitrile (enantiomer 1)]: the IC50 at full-length human AR stood at 0.019 µM; against 17,20 lyase (CYP17), 0.076 µM.

Take `CN(c1ccc(C#N)c(C(F)(F)F)c1)C1C(O)C(c2c[nH]cn2)=CCC1(C)C` (single isomer, unassigned) [Ex. 245, 4-{[2-Hydroxy-3-(1H-imidazol-4-yl)-6,6-dimethylcyclohex-3-enyl](methyl)-amino}-2-(trifluoromethyl)benzonitrile]: the IC50 on 17,20 lyase (CYP17) (setting [1]) worked out at 0.097 µM.

Consider `CN(c1ccc(C#N)c(C(F)(F)F)c1)C1C=C(c2cncn2CCOCc2ccccc2)CCC1(C)C` (stereo not drawn) [Ex. 220, 4-((3-(1-(2-(benzyloxy)ethyl)-1H-imidazol-5-yl)-6,6-dimethylcyclohex-2-en-1-yl)(methyl)amino)-2-(trifluoromethyl)benzonitrile], for which the IC50 at 17,20 lyase (CYP17) (setting [1]) was found to be 0.01 µM.

Consider `CN(c1ccc(C#N)c(C(F)(F)F)c1)C1C=C(n2ccnc2)CCC1` (single isomer, unassigned) [Ex. 6 enantiomer 1, 4-((3-(1H-imidazol-1-yl)cyclohex-2-enyl)(methyl)amino)-2-(trifluoromethyl)benzonitrile], for which the half-inhibitory concentration (IC50) on 17,20 lyase (CYP17) (setting [1]) is 0.074 µM.

For `CN(c1ccc(C#N)c(C(F)(F)F)c1)C1CC(n2ccnc2)CCC1(C)C` (single isomer, unassigned) [Ex. 47 cis-enantiomer 3, 4-((5-(1H-Imidazol-1-yl)-2,2-dimethylcyclohexyl)(methyl)amino)-2-(trifluoromethyl)benzonitrile], on 17,20 lyase (CYP17) (setting [1]), the IC50 was found to be 0.018 µM.

Take `CN(c1ccc(C#N)c(Cl)c1)C1CC(c2c[nH]cn2)=CCC1(C)C` (single isomer, unassigned) [Ex. 2 enantiomer 1, 4-((3-(1H-imidazol-4-yl)-6,6-dimethylcyclohex-3-enyl)(methyl)amino)-2-chlorobenzonitrile]: the IC50 at 17,20 lyase (CYP17) (setting [1]) came out at 0.027 µM.

As to `CCN(c1ccc(C#N)c(C(F)F)c1)C1C=C(n2ccnc2)CCC1(C)C` (single isomer, unassigned) [Ex. 31 enantiomer 1, 4-((3-(1H-imidazol-1-yl)-6,6-dimethylcyclohex-2-enyl)(ethyl)amino)-2-(difluoromethyl)benzonitrile], the IC50 on 17,20 lyase (CYP17) (setting [1]) amounted to 0.023 µM.

On to `CCN(c1ccc(C#N)c(C(F)(F)F)c1)C1CC=C(c2c[nH]cn2)C1` (stereo not drawn) [Ex. 150, 4-((3-(1H-imidazol-4-yl)cyclopent-3-en-1-yl)(ethyl)amino)-2-(trifluoromethyl)benzonitrile], for which the IC50 at 17,20 lyase (CYP17) (setting [1]) was found to be 0.017 µM.

Regarding `CCN(c1ccc(C#N)c(C(F)(F)F)c1)C1CCC=C(c2cccnc2)C1(C)C` (stereo not drawn) [Ex. 97, 4-((2,2-dimethyl-3-(pyridin-3-yl)cyclohex-3-en-1-yl)(ethyl)amino)-2-(trifluoromethyl)benzonitrile], the IC50 on 17,20 lyase (CYP17) (setting [1]) was 0.066 µM.

Consider `CCN(c1ccc(C#N)c(C(F)(F)F)c1)C1CCC=C(c2c[nH]cn2)C1(C)C` (stereo not drawn) [Ex. 100, 4-((3-(1H-imidazol-4-yl)-2,2-dimethylcyclohex-3-en-1-yl)(ethyl)amino)-2-(trifluoromethyl)benzonitrile], for which the IC50 at 17,20 lyase (CYP17) (setting [1]) is 0.036 µM.

`CCN(c1ccc(C#N)c(Cl)c1)C1CC=C(c2c[nH]cn2)C1` (stereo not drawn) [Ex. 133, 4-((3-(1H-Imidazol-4-yl)cyclopent-3-en-1-yl)(ethyl)amino)-2-chlorobenzonitrile]: the IC50 at 17,20 lyase (CYP17) (setting [1]) stood at 0.007 µM.

For the compound `CCN(c1ccc(C#N)c(C(F)(F)F)c1)C1CCC(c2cnc[nH]2)C1` (stereo not drawn) [Ex. 219, 4-((3-(1H-imidazol-5-yl)cyclopentyl)(ethyl)amino)-2-(trifluoromethyl)-benzonitrile], on 17,20 lyase (CYP17) (setting [1]), the IC50 stood at 0.105 µM.

As for `CCN(c1cc(F)c(C#N)c(F)c1)C1CCCC(n2ccnc2)C1` (single isomer, unassigned; diastereomer 4) [Ex. 12 cis-diastereomer], at 17,20 lyase (CYP17) (setting [1]), the IC50 stood at 0.018 µM.

Take `CCN(c1ccc(C#N)c(C(F)(F)F)c1)C1CCCC(O)(c2cccnc2)C1` (single isomer, unassigned) [Ex. 216 diastereomer 2, 4-(Ethyl(3-hydroxy-3-(pyridin-3-yl)cyclohexyl)amino)-2-(trifluoromethyl)-benzonitrile]: on full-length human AR, the IC50 turned out to be 0.028 µM.
